# Test results reported in patent US6884597B1, “Method for detecting acetyltransferase and deacetylase activities and method for screening inhibitors or enhancers of these enzymes” (Medical & Biological Laboratories, Co., Ltd., priority 1998, dated 2005).
# T1: Sub p53-2
# T1 chain: SHLKSKKGQSTSR
# T2: Sub p53-1
# T2 chain: STSRHKKLMFKTE
# B1: recombinant CBP (protein)
# chain: QNRYHFCEKCFTEIQGENVTLGDDPSQPQTTISKDQFEKKKNDTLDPEPFVDCKECGRKMHQICVLHYDIIWPSGFVCDNCLKKTGRPRKENKFSAKRLQTTRLGNHLEDRVNKFLRRQNHPEAGEVFVRVVASSDKTVEVKPGMKSRFVDSGEMSESFPYRTKALFAFEEIDGVDVCFFGMHVQEYGSDCPPPNTRRVYISYLDSIHFFRPRCLRTAVYHEILIGYLEYVKKLGYVTGHIWACPPSEGDDYIFHCHPPDQKIPKPKRLQEWYKKMLDKAFAERIIHDYKDIFKQATEDRLTSAKELPYFEGDFWPNVLEESIKELEQEEEERKKEESTAASETTEGSQGDSKNAKKKNNKKTNKNKSSISRANKKKPSMPNVSNDLSQKLYATMEKHKEVFFVIHLHAGPVINTLPPIVDPDPLLSCDLMDGRDAFLTLARDKHWEFSSLRRSKWSTLCMLVELHTQGQDRFVYTCNEC
# Experiments:
# CMV promoter = CMV promoter activity in pcDNA3-GFP-harboring CHO cells detected using the GFP reporter gene; format: cell-based; conditions: 8 hours
# Method: A plasmid vector (pcDNA3-GFP), in which GFP gene was introduced into a multicloning site immediately downstream of CMV promoter in pcDNA3 expression vector for mammalian cells in the forward direction was prepared by the standard method using E. coli. • 2. Introduction of the Plasmid Vector into Cells and Screening of Plasmid-Harboring Cells
# pcDNA3-GFP was introduced into CHO cells by the lipofection method, and cultured for 24 hours at 37° C. in a 5% CO2 incubator (4 ml of DMEM was used as a culture medium per 6 cm-plate). Neomycin, an antibiotic, the resistance gene of which is carried on pcDNA3 plasmid, was added to the medium, and cultured for 2 weeks to select cells harboring pcDNA3-GFP. During this screening, the medium was replaced with a new one containing neomycin every four days. • 3. Screening of the Plasmid-Harboring Cells in which the Promoter Activity is Inhibited
# The clones of the screened cells were transferred to separate plates and cultured. […] Several clones in which emission of the product of the GFP gene ligated downstream of CMV promoter was weak or was hardly detected were selected.
# These cells were spread onto a 96-well plate for cell culture, adjusted to about 2500 cells per well (200 μl of DMEM was used as the culture medium per well), and cultured overnight (about 10 to 20 hours) at 37° C. in a 5% CO2 incubator to tightly attach the cells onto the plate. […]
# The amount of GFP proteins expressing in cells in each well of the treated 96-well plate was measured with a fluorescent multiplate reader as change of fluorescence intensity.
# As a result, an increase of florescence intensity was observed depending on the concentration of the deacetylase inhibitors (FIGS. 15, 16 and Tables 3 and 4).
# histone deacetylase = experiment: Detection of change in acetylation of histone in cells with anti-acetylated lysine antibody (cell ELISA); format: cell-based, human; conditions: Hela cells, 8 hours
# Method: Hela cells were spread onto a 96-well plate for cell culture by adjusting 2500 cells per well (culture medium was DMEM, 200 μl thereof was used per well), and cultured at 37° C. overnight in a 5% CO2 incubator to tightly attach the cells onto the plate. • 3. Treatment with known Inhibitors for Histone Deacetylase […]
# The medium was aspirated from each well without touching the cells, and each well was washed with 200 μl of PBS three times. After washing, 200 μl of 100% methanol cooled at −20° C. in advance was added to each well, left at room temperature for 5 min to fix the cells. […] was completely aspirated and dried.
# The anti-acetylated lysine residue antibody was diluted to 0.5 μg/ml with the antibody dilution buffer and 100 μl thereof was added to each washed well, and left at 30° C. for 1 hour (the first reaction). After the first reaction, each well was washed with the washing buffer in the same manner, and 100 μl of goat anti-rabbit Ig (H+L) horse radish peroxidase label (MBL) diluted 2000 folds with the antibody dilution buffer was added to each well, and left at 30° C. for 1 hour (the second reaction). Each well was washed with washing buffer, and 100 μl of horse radish peroxidase substrate solution was added to each well and incubated at 30° C. for 30 min for the coloring reaction. 100 μl of the 1.5 N phosphate solution was added thereto to terminate the coloring reaction. Absorbance at 450 nm was measured using a microtiter plate reader.
# As a result, an increase of absorbance was observed depending on the concentration of the deacetylase inhibitors (FIGS. 13 and 14, and Tables 1 and 2). In this measurement, a stronger inhibition of deacetylation of histone in cells accompanies a larger degree of acetylation of histone, and absorbance was increased depending on the increase in the concentration of antigen (an acetylated histone). Therefore, an inhibition of the deacetylase activity correlates to an increase of absorbance.
# Sub p53-2 = target: T1, Sub p53-2
# Sub p53-1 = target: T2, Sub p53-1
# [1] = test system: sub p53-1 and sub p53-2 peptides; experiment: ELISA system for measuring the acetyltransferase activity (liquid and solid phase); format: biochemical, human; conditions: 0 to 10 μg/ml; liquid and solid phases; depending on the concentration; FIGS. 9 and 10
# Method: Two peptide substrates “Sub p53-1” (SEQ ID NO: 13/Bio-STSRHKKLMFKTE) and “Sub p53-2” (SEQ ID NO: 14/Bio-SHLKSKKGQSTSR) comprising the 373rd and 382nd lysine residues of the amino acid sequence of human p53, respectively, reported as an acetylation sites of acetyltransferase, were prepared by a peptide synthesizer. Amino acids in the peptide are shown in one-letter codes, and “Bio” at the amino ends means biotin. Ninety percent or higher purity was confirmed by HPLC. “Sub p53-1” and “Sub-p53-2” were composed of amino acids 376 to 388 and amino acids 367 to 379, respectively. […] The amplified PCR product was subcloned to pGEX, expressed as a fusion with GST, and purified (GST-p53 Cter). • (2) Preparation of a Peptide Substrate, “GST-p53 Cter” and a Streptoavidin Sensitized Plate […]
# The synthesized peptide substrates and a recombinant acetyltransferase were reacted in the liquid phase, and the enzyme activity was measured by the ELISA system using a microtiter plate. […] 100 μl of 1.5 N phosphate solution were added to terminate the coloring reaction, and absorbance at 450 nm was measured using a microtiter plate reader. • Solid Phase Analysis System (Refer to FIG. 2) […]
molecule,measurement,setting,value
"CCCC(=O)O [S. B., butyric acid]",Relative fluorescence intensity (%),CMV promoter; S. B. concentration 0.012 mM,8.5%
same,Relative fluorescence intensity (%),CMV promoter; S. B. concentration 0.049 mM,7.8%
same,Relative fluorescence intensity (%),CMV promoter; S. B. concentration 0.195 mM,13.3%
same,Relative fluorescence intensity (%),CMV promoter; S. B. concentration 0.78 mM,15.7%
same,Relative fluorescence intensity (%),CMV promoter; S. B. concentration 3.13 mM,50.3%
same,Relative fluorescence intensity (%),CMV promoter; S. B. concentration 12.5 mM,98.5%
same,Relative fluorescence intensity (%),CMV promoter; S. B. concentration 50 mM,100%
same,Absorbance at 450 nm,histone deacetylase; S. B. concentration 0.012 mM,0.091
same,Absorbance at 450 nm,histone deacetylase; S. B. concentration 0.049 mM,0.077
same,Absorbance at 450 nm,histone deacetylase; S. B. concentration 0.195 mM,0.097
same,Absorbance at 450 nm,histone deacetylase; S. B. concentration 0.78 mM,0.136
same,Absorbance at 450 nm,histone deacetylase; S. B. concentration 3.13 mM,0.306
same,Absorbance at 450 nm,histone deacetylase; S. B. concentration 12.5 mM,0.551
same,Absorbance at 450 nm,histone deacetylase; S. B. concentration 50 mM,0.545
"CC(/C=C/C(=O)NO)=C\[C@@H](C)C(=O)c1ccc(N(C)C)cc1 [TSA, trichostatin A]",Relative fluorescence intensity (%),CMV promoter; TSA concentration 0.5 nM,2.2%
same,Relative fluorescence intensity (%),CMV promoter; TSA concentration 1.95 nM,1.8%
same,Relative fluorescence intensity (%),CMV promoter; TSA concentration 7.8 nM,5.1%
same,Relative fluorescence intensity (%),CMV promoter; TSA concentration 31.3 nM,12.3%
same,Relative fluorescence intensity (%),CMV promoter; TSA concentration 125 nM,34.2%
same,Relative fluorescence intensity (%),CMV promoter; TSA concentration 500 nM,73.1%
same,Relative fluorescence intensity (%),CMV promoter; TSA concentration 2000 nM,100%
same,Absorbance at 450 nm,histone deacetylase; TSA concentration 0.5 nM,0.056
same,Absorbance at 450 nm,histone deacetylase; TSA concentration 1.95 nM,0.056
same,Absorbance at 450 nm,histone deacetylase; TSA concentration 7.8 nM,0.041
same,Absorbance at 450 nm,histone deacetylase; TSA concentration 31.3 nM,0.071
same,Absorbance at 450 nm,histone deacetylase; TSA concentration 125 nM,0.095
same,Absorbance at 450 nm,histone deacetylase; TSA concentration 500 nM,0.278
same,Absorbance at 450 nm,histone deacetylase; TSA concentration 2000 nM,0.476
B1,"acetyltransferase activity (ELISA with anti-acetylated peptide antibody, absorbance at 450 nm; liquid and solid phase)",Sub p53-2,"the acetyltransferase activities to ""subp53-1"" and ""sub p53-2"" peptides depending on the concentration of CBP were detected"
same,"acetyltransferase activity (ELISA with anti-acetylated peptide antibody, absorbance at 450 nm; liquid and solid phase)",Sub p53-1,"the acetyltransferase activities to ""subp53-1"" and ""sub p53-2"" peptides depending on the concentration of CBP were detected"
same,acetyltransferase activities to sub p53-1 and sub p53-2 peptides,[1],detected
